# Data: patent publication US9067937B2 (priority 2012, dated 2015)
# Structures can show the parent of a compound that is named as a salt. Where two headings read alike, the source gives them in different places.
# What was measured:
# A549 cells = assay: Cell-based assay, anti-proliferative activity (Cell Counting Kit-8, 72 hours); design: species or system human; settings: read-out: IC50 (μM) (A549)
# Method: (§1) Active candidate inhibitors against MELK were evaluated for their target-specific cytotoxicity using 22Rv1, T47D, A549, DU4475 and HT-1197 cells was used for negative control. 100 micro-L of cell suspension was seeded onto 96-well microtiter plate (ViewPlate-96FTC, PerkinElmer). The initial cell concentration of 22Rv1, T47D, A549, DU4475, and HT1197 were 3,000 cells/well, 2,000 cells/well and 2,500 cells/well, respectively. Cellular growth was determined using Cell Counting Kit-8 (DOJINDO) at 72 hours after the exposure of the candidate inhibitors. […] Accurate IC50 values were calculated as described previously.
# 22Rv1 cells = assay: as above; design: species or system human; settings: read-out: IC50 (μM) (22Rvl)
# Method: as §1
# DU4475 cells = assay: as above; design: species or system human; settings: read-out: IC50 (μM) (DU4475)
# Method: as §1
# T47D cells = assay: as above; design: species or system human; settings: read-out: IC50 (μM) (T47D)
# Method: as §1
# HT1197 cells = assay: Cell-based assay, anti-proliferative activity, MELK-negative control (Cell Counting Kit-8, 72 hours); design: species or system human; settings: read-out: IC50 (μM) (HTll97)
# Method: as §1, with “100” for “Active candidate inhibitors against MELK were evaluated for their target-specific cytotoxicity using 22Rv1, T47D, A549, DU4475 and HT-1197 cells was used for negative control. 100”
# MELK = MELK (Homo sapiens, UniProt Q14680); assay: Kinase assay (IMAP fluorescence polarization, FITC-labeled histone H3 peptide); assay type: biochemical; settings: 50 micro-M ATP
# Sequence of MELK (Q14680 whole entry, looked up): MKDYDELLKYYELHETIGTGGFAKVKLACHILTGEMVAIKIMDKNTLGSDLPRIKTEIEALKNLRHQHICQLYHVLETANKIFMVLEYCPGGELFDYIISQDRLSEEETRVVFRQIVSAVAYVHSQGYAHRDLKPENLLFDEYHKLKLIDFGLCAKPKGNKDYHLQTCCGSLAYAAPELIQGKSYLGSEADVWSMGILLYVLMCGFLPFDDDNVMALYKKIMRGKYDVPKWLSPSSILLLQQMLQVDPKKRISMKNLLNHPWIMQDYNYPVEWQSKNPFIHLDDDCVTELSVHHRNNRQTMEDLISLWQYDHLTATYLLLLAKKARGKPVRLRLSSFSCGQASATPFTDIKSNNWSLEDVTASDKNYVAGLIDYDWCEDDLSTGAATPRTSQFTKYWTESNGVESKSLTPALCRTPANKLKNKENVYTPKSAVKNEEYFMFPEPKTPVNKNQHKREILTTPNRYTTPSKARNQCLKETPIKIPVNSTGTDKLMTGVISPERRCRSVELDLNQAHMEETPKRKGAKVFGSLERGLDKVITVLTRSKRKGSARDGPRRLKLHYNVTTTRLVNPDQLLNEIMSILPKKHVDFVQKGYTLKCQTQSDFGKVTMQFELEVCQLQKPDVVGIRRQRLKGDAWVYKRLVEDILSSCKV
# Method: MELK activity was determined in the presence or absence of compounds using fluorescein isothiocyanate-labeled (FITC-labeled) histone H3 peptide as a substrate. […] The serially diluted compounds, 0.8 ng/micro-L […] (Carna Biosciences) and 100 nM FITC-labeled histone H3 peptide were reacted in a reaction buffer (20 mM HEPES, 0.01% Tween-20, 0.3 mM MgCl2, 2 mM dithiothreitol, 50 micro-M ATP, pH 7.4) at room temperature for 1 hour. The reaction was stopped by the addition of three fold assay volume of progressive binding solution. […] IC50 values were calculated by nonlinear four parameter fit using SigmaPlot, version 10.0 (Systat Software, Inc.).
# [1] = HT1197 cells (MELK-negative control), 72 hours
Molecule,"IC50 (A549 cells; A549 cells, 72 hours)","IC50 (22Rv1 cells; 22Rv1 cells, 72 hours)","IC50 (DU4475 cells; DU4475 cells, 72 hours)","IC50 (T47D cells; T47D cells, 72 hours)",IC50 (HT1197 cells; [1]),IC50 (MELK),"IC50 (A549 cells; Homo sapiens, A549, 72 h)","IC50 (22Rv1 cells; Homo sapiens, 22Rv1, 72 h)","IC50 (DU4475 cells; Homo sapiens, DU-4475, 72 h)","IC50 (T47D cells; Homo sapiens, T47D, 72 h)","IC50 (HT1197 cells; Homo sapiens, HT1197, 72 h)"
"1-[6-(3,5-Dichloro-4-hydroxyphenyl)-4-(trans-4-hydroxycyclohexylamino)-1,5-naphthyridin-3-yl]-ethanone hydrochloride [Example 91]",0.048 µM,0.072 µM,0.016 µM,0.038 µM,0.33 µM,0.015 µM,–,–,–,–,–
"1-[6-(3-Chloro-5-fluoro-4-hydroxyphenyl)-4-(trans-4-hydroxycyclohexylamino)-1,5-naphthyridin-3-yl]ethanone hydrochloride [Example 92]",0.053 µM,0.061 µM,0.018 µM,0.036 µM,0.53 µM,0.012 µM,–,–,–,–,–
"CC(=O)c1cnc2ccc(Cl)nc2c1N[C@H]1CC[C@H](CN(C)C)CC1 [Example 1, 1-(6-Chloro-4-{trans-4-[(dimethylamino)methyl]cyclohexylamino}-1,5-naphthyridin-3-yl)-ethanone]",–,–,–,–,–,0.31 µM,2.7 µM,5 µM,2.5 µM,5.3 µM,10 µM
"CC(=O)c1cnc2ccc(-c3cc(Cl)c(O)c(Cl)c3)nc2c1N[C@H]1CC[C@H](N(C)C)CC1 [Example 2, 1-{6-(3,5-Dichloro-4-hydroxyphenyl)-4-[trans-4-(dimethylamino)cyclohexylamino]-1,5-naphthyridin-3-yl}ethanone dihydrochloride]",–,–,–,–,–,0.0003 µM,0.004 µM,0.0032 µM,0.0015 µM,0.0018 µM,0.19 µM
"CC(=O)c1cnc2ccc(-c3cc(F)c(O)c(Cl)c3)nc2c1N[C@H]1CC[C@H](N(C)C)CC1 [Example 3, 1-{6-(3-Chloro-5-fluoro-4-hydroxyphenyl)-4-[trans-4-(dimethylamino)cyclohexylamino]-1,5-naphthyridin-3-yl}ethanone dihydrochloride]",–,–,–,–,–,0.0012 µM,0.0091 µM,0.006 µM,0.0033 µM,0.0026 µM,0.39 µM
"CN(C)C[C@H]1CC[C@H](Nc2c(C(=O)C3CC3)cnc3ccc(-c4cc(Cl)c(O)c(Cl)c4)nc23)CC1 [Example 4, Cyclopropyl(6-(3,5-dichloro-4-hydroxyphenyl)-4-{trans-4-[(dimethylamino)methyl]-cyclohexylamino}-1,5-naphthyridin-3-yl)methanone dihydrochloride]",–,–,–,–,–,0.0005 µM,0.0062 µM,0.0064 µM,0.0026 µM,0.0055 µM,0.036 µM
"CN(C)C[C@H]1CC[C@H](Nc2c(C(=O)C3CC3)cnc3ccc(-c4cc(F)c(O)c(Cl)c4)nc23)CC1 [Example 5, (6-(3-Chloro-5-fluoro-4-hydroxyphenyl)-4-{trans-4-[(dimethylamino)methyl]cyclohexyl-amino}-1,5-naphthyridin-3-yl)(cyclopropyl)methanone dihydrochloride]",–,–,–,–,–,0.0008 µM,0.0061 µM,0.0057 µM,0.003 µM,0.0029 µM,0.018 µM
"CC(=O)c1cnc2ccc(-c3cc(F)c(O)c(Cl)c3)nc2c1N[C@H]1CC[C@H](CN(C)C)CC1 [Example 7, 1-{6-(3-Chloro-5-fluoro-4-hydroxyphenyl)-4-({trans-4-[(dimethylamino)methyl]cyclohexyl}-amino)-1,5-naphthyridin-3-yl}ethanone dihydrochloride]",–,–,–,–,–,0.0013 µM,0.0097 µM,0.0061 µM,0.0036 µM,0.0035 µM,0.11 µM
"COc1cc(-c2ccc3ncc(C(C)=O)c(N[C@H]4CC[C@H](CN(C)C)CC4)c3n2)cc(Cl)c1O [Example 8, 1-(6-(3-Chloro-4-hydroxy-5-methoxyphenyl)-4-{trans-4-[(dimethylamino)methyl]cyclohexyl-amino}-1,5-naphthyridin-3-yl)ethanone dihydrochloride]",–,–,–,–,–,0.0015 µM,0.024 µM,0.044 µM,0.0064 µM,0.013 µM,0.24 µM
"CC(=O)c1cnc2ccc(-c3cc(Cl)c(O)c(Cl)c3)nc2c1N[C@H]1CC[C@H](CCN(C)C)CC1 [Example 9, 1-[6-(3,5-Dichloro-4-hydroxyphenyl)-4-({trans-4-[2-(dimethylamino)ethyl]cyclohexyl}amino)-1,5-naphthyridin-3-yl]ethanone dihydrochloride]",–,–,–,–,–,0.0007 µM,0.013 µM,0.011 µM,0.0055 µM,0.0066 µM,0.27 µM
"CC(=O)c1cnc2ccc(-c3cc(F)c(O)c(Cl)c3)nc2c1N[C@H]1CC[C@H](CCN(C)C)CC1 [Example 10, 1-(6-(3-Chloro-5-fluoro-4-hydroxyphenyl)-4-{trans-4-[2-(dimethylamino)ethyl]-cyclohexylamino}-1,5-naphthyridin-3-yl)ethanone dihydrochloride]",–,–,–,–,–,0.0014 µM,0.012 µM,0.01 µM,0.0049 µM,0.0039 µM,0.2 µM
"CC(=O)c1cnc2ccc(-c3ccc(O)c(OC(F)(F)F)c3)nc2c1N[C@H]1CC[C@H](CN(C)C)CC1 [Example 11, 1-(4-{trans-4-[(Dimethylamino)methyl]cyclohexylamino}-6-[4-hydroxy-3-(trifluoromethoxy)-phenyl]-1,5-naphthyridin-3-yl)ethanone dihydrochloride]",–,–,–,–,–,0.0027 µM,0.042 µM,0.066 µM,0.049 µM,0.027 µM,0.14 µM
"[2H]C([2H])([2H])N(C[C@H]1CC[C@H](Nc2c(C(C)=O)cnc3ccc(-c4cc(Cl)c(O)c(Cl)c4)nc23)CC1)C([2H])([2H])[2H] [Example 28, 1-(6-(3,5-Dichloro-4-hydroxyphenyl)-4-(trans-4-((dimethylamino-d6)methyl)-cyclohexylamino)-1,5-naphthyridin-3-yl)ethanone dihydrochloride]",–,–,–,–,–,–,0.006 µM,0.0052 µM,0.0022 µM,0.004 µM,0.14 µM
"CC(=O)c1cnc2ccc(-c3cc(F)c(O)c(Cl)c3)nc2c1N[C@H]1CC[C@H](NC(=O)[C@@H]2CCCN2)CC1 [Example 76, (S)—N-{4-[3-Acetyl-6-(3-chloro-5-fluoro-4-hydroxyphenyl)-1,5-naphthyridin-trans-4-ylamino]-cyclohexyl}pyrrolidine-2-carboxamide dihydrochloride]",–,–,–,–,–,–,0.32 µM,0.073 µM,0.019 µM,0.03 µM,8.7 µM
"CC(=O)c1cnc2ccc(-c3cc(Cl)c(O)c(Cl)c3)nc2c1NC[C@H]1CC[C@H](N(C)C)CC1 [Example 89, dihydrochloride]",–,–,–,–,–,–,0.041 µM,0.028 µM,0.0063 µM,0.023 µM,0.9 µM
"CC(=O)c1cnc2ccc(-c3cc(Cl)c(O)c(Cl)c3)nc2c1N[C@H]1CC[C@@H](CN(C)C)CC1 [Example 94, 1-{6-(3,5-Dichloro-4-hydroxyphenyl)-4-({cis-4-[(dimethylamino)methyl]-cyclohexyl}amino)-1,5-naphthyridin-3-yl}ethanone dihydrochloride]",–,–,–,–,–,–,0.039 µM,0.028 µM,0.0073 µM,0.02 µM,0.25 µM
"CC(C)C(=O)c1cnc2ccc(-c3cc(Cl)c(O)c(Cl)c3)nc2c1N[C@H]1CC[C@H](CN(C)C)CC1 [Example 216, 1-[6-(3,5-dichloro-5-4-hydroxyphenyl)-4-({trans-4-[(dimethylamino)methyl]cyclohexyl}amino)-1,5-naphthyridin-3-yl]-2-methylpropan-1-one dihydrochloride]",–,–,–,–,–,0.0019 µM,0.012 µM,–,–,–,0.025 µM
"CC(C)C(=O)c1cnc2ccc(-c3cc(F)c(O)c(Cl)c3)nc2c1N[C@H]1CC[C@H](CN(C)C)CC1 [Example 217, dihydrochloride]",–,–,–,–,–,0.0018 µM,0.021 µM,–,–,–,0.055 µM
